Test system: human CD8-positive memory T cell
Assay: Cell growth inhibition test of human CD8-positive memory T cell (anti-CD3 antibody stimulation, BrdU uptake)
Format: cell-based
Details: 48 hours
Procedure: A heparinized blood sample was collected from a human, healthy volunteer, and peripheral blood mononuclear cell (PBMC) was isolated by a density gradient centrifugation. Specifically, a blood sample (33 ml) 2-fold diluted with physiological saline was overlaid on a medium for hemocyte separation use (10 ml) having a specific gravity of 1.077±0.001 g/ml contained in a centrifugation tube (LymphoPrep tube (Nycomed Pharma)) and centrifuged (3000×g, 10 minutes) at room temperature. The layer containing PBMC was recovered and washed twice with PBS to isolate PBMC.
CD8-positive T cell was isolated from PBMC by a negative selection method using Human T Cell CD8 Subset Column Kit (R & D Systems, Inc). Specifically, the cells to be removed such as B cell, CD4-positive T cell, and monocyte were labeled with antibodies by adding an antibody cocktail (1 ml) (attached to the kit) to PBMC (up to 2×10^8 cells) and incubating at room temperature for 15 minutes. The cells were washed twice with a column buffer (10 ml) (attached to the kit) and suspended in said column buffer (2 ml). The cell suspension was added to Human T Cell Subset Enrichment Column (attached to the kit) which had been equilibrated in advance using the column buffer (10 ml). By eluting with the column buffer (10 ml) after incubation at room temperature for 10 minutes, the CD8-positive T cell was obtained.
CD8-positive naive T cell and CD8-positive memory T cell were obtained by fractionating the CD8-positive T cell obtained by the above-described method using VarioMACS (Miltenyl Biotec). Specifically, a marker of naive T cell, CD45RA antigen, was labeled with antibody magnetic beads by adding 20 μl of CD45RA MicroBeads (Miltenyl Biotec) to 1×10^7 cells of the CD8-positive T cell, mixing them and incubating at 6 to 12° C. for 15 minutes. The cells were washed once with MACS buffer (PBS containing 2 mM EDTA and 0.5% bovine serum albumin (BSA)) (20 ml) (attached to the kit) and re-suspended in MACS buffer (0.5 ml). The cell suspension was added to an MS column (Miltenyl Biotec) which had been set to VarioMACS and equilibrated with MACS buffer (0.5 ml) in advance, and further washed with MACS buffer (0.5 ml×3 times). This washing solutions were recovered and used in the following test as the CD45RA-negative cell, namely CD8-positive memory T cell. Also, since the CD45RA-positive cell can be recovered by taking off the MS column from VarioMACS and eluting it with MACS buffer (1.5 ml), this was used in the following test as the CD8-positive naive T cell.
The cells fractionated by the method described in the above-described (2-1) were inoculated into a 96 well plate coated with an anti-human CD3 antibody, at a cell density of 2×10^5 cells/200 μl/well. The anti-human CD3 antibody-coated 96 well plate used herein was prepared by coating it with an anti-human CD3 antibody OKT-3 (0.1 μg/ml) overnight at 4° C. The cells were cultured for 48 hours in a CO2 incubator (5% CO2, humidity 95%) kept at 37° C. The cell growth was measured using Cell Proliferation ELISA, BrdU (Colorimetric) (Roche), using uptake of 5-bromo-2-deoxyuridine (BrdU) as the index. The operation method is shown below.
After treating the cells with BrdU for a predetermined period of time, the plate was centrifuged (300×g, 10 minutes), and then turned upside down and lightly shaken to remove the labeled medium. The plate was dried (for about 15 minutes) using a hair dryer. A cell fixing and DNA denaturing solution (200 μl, attached to the kit) was added to each well and left alone for 30 minutes. After removing the cell fixing and DNA denaturing solution and further removing water, a peroxidase-labeled anti-BrdU antibody (anti-BrdU-POD reaction solution) (100 μl) (attached to the kit) was added thereto and left alone at room temperature for 90 minutes. […]

CCCCN1C(=O)[C@@H]([C@H](O)C2CCCCC2)NC(=O)C12CCN(Cc1ccc(Cc3ccc(C(=O)O)cc3OC)cc1)CC2 [Compound (b), 4-[4-({(3R)-1-butyl-3-[(R)-cyclohexyl(hydroxy)methyl]-2,5-dioxo-1,4,9-triazaspiro[5.5]undec-9-yl}methyl)benzyl]-3-methoxybenzoic acid] was tested, and the “inhibition ratio of cell growth” value (0.01 μM) was −10.6%, the “inhibition ratio of cell growth” value (0.1 μM) was 5.6% and the “inhibition ratio of cell growth” value (1 μM) was 18.3%. The “inhibition ratio of cell growth” value (10 μM) was 53.6%.

With CCCCN1C(=O)[C@@H]([C@H](O)C2CCCCC2)NC(=O)C12CCN(Cc1ccc(Oc3ccc(C(=O)O)cc3OCC)cc1)CC2.Cl [Compound (c), 4-[4-({(3R)-1-butyl-3-[(R)-cyclohexyl(hydroxy)methyl]-2,5-dioxo-1,4,9-triazaspiro[5.5]undec-9-yl}methyl)phenoxy]-3-ethoxybenzoic acid hydrochloride] the “inhibition ratio of cell growth” value (0.01 μM) was 9.2%, the “inhibition ratio of cell growth” value (0.1 μM) was 13.4% and the “inhibition ratio of cell growth” value (1 μM) was 18.8%. For the same compound, the “inhibition ratio of cell growth” value (10 μM) was 39.6%.

Source: US20070270429A1, “Function Inhibitor of Effector Cell” (priority 2003, published 2007)
